Reference: US20240208992A1, “MACROCYCLES AS CFTR MODULATORS” (Idorsia Pharmaceuticals Ltd, priority 2021, published 2024)
pEC50: −log10 of the molar value.

Molecular target: human F508del-CFTR (Homo sapiens, UniProt P13569, DEL508-508)
Assay: F508del-CFTR cell surface expression (corrector activity), DiscoveRx ß-galactosidase complementation chemiluminescence assay in recombinant U2OS cell line;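 also: U2OS cells co-expressing ProLink-tagged F508del-CFTR and a membrane-anchored enzyme acceptor, where more surface CFTR restores β-galactosidase activity measured by chemiluminescence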
Details: U2OS cell line, 16h compound incubation; for pEC50: EC50, F508del-CFTR cell surface expression, geomean values; for Emax: U2OS, in relation to the Emax of the corrector lumacaftor (=100%), arithmetic mean values

Sequence of human F508del-CFTR (P13569 with tags, fused parts or gaps DEL508-508): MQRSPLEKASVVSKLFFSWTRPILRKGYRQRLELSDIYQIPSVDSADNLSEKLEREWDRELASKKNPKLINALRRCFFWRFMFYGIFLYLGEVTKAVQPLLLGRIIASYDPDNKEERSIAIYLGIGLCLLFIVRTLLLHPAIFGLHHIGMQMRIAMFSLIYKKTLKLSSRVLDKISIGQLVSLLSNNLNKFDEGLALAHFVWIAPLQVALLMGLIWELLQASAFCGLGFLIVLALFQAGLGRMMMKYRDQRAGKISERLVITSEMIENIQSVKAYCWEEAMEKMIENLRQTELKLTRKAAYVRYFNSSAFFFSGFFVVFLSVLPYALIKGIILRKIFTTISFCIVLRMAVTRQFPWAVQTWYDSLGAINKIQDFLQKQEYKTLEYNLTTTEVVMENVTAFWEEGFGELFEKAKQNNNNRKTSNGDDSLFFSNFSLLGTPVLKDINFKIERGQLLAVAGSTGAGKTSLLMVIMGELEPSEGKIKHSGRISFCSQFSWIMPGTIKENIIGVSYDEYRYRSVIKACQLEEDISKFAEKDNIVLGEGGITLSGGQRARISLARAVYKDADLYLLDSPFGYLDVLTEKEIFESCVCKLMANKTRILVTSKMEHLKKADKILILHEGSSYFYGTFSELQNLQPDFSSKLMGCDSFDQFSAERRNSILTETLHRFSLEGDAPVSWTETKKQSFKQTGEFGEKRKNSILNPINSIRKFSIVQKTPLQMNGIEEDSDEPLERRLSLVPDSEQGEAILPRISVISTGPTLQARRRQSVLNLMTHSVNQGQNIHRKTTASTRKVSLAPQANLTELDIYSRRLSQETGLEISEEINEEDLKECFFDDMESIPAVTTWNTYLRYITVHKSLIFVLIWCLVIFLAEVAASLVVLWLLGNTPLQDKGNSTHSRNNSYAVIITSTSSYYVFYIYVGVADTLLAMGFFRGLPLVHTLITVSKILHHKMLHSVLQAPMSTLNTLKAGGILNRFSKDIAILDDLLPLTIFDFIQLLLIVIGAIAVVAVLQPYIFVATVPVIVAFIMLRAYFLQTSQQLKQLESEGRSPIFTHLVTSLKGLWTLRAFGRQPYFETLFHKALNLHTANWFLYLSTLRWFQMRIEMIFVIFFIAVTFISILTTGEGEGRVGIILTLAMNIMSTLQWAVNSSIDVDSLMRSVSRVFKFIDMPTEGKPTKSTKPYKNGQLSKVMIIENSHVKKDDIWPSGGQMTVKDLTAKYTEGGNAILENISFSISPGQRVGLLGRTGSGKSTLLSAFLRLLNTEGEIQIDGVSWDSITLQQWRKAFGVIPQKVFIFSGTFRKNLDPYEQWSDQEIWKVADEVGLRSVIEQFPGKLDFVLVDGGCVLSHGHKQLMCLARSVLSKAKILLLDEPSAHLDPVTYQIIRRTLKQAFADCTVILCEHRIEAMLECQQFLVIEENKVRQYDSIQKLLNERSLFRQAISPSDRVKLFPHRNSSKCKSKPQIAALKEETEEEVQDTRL

SMILES | pEC50 | Emax [%]
COc1cccc(CCNC(=O)[C@@H]2CC(=O)N(C)[C@@H](CC(C)C)C(=O)N(C)CC(=O)N[C@H](Cc3ccccc3)COc3cc4ccccc4cc3C(=O)N2)c1 [Example 238, (3R,9S,13S)-3-benzyl-9-isobutyl-N-(3-methoxyphenethyl)-7,10-dimethyl-5,8,11,15-tetraoxo-2,3,4,5,6,7,8,9,10,11,12,13,14,15-tetradecahydronaphtho[2,3-p][1]oxa[4,7,10,14]tetraazacycloheptadecine-13-carboxamide] | 6.43 | 153
CCc1ccc(CCNC(=O)[C@@H]2CC(=O)N(C)[C@@H](CC(C)C)C(=O)N(C)CC(=O)N[C@H](Cc3ccccc3)COc3cccc(OC)c3C(=O)N2)cc1 [Example 239, (3R,9S,13S)-3-benzyl-N-(4-ethylphenethyl)-9-isobutyl-16-methoxy-7,10-dimethyl-5,8,11,15-tetraoxo-2,3,4,5,6,7,8,9,10,11,12,13,14,15-tetradecahydrobenzo[p][1]oxa[4,7,10,14]tetraazacycloheptadecine-13-carboxamide] | 6.29 | 142
COc1cccc(CCNC(=O)[C@@H]2CC(=O)N(C)[C@@H](CC(C)C)C(=O)N(C)CC(=O)N[C@H](Cc3ccccc3)COc3ccsc3C(=O)N2)c1 [Example 240, (6R,12S,16S)-6-benzyl-12-isobutyl-N-(3-methoxyphenethyl)-10,13-dimethyl-8,11,14,18-tetraoxo-5,6,7,8,9,10,11,12,13,14,15,16,17,18-tetradecahydrothieno[2,3-p][1]oxa[4,7,10,14]tetraazacycloheptadecine-16-carboxamide] | 5.90 | 77
COc1cccc(CCNC(=O)[C@@H]2CC(=O)N(C)[C@@H](CC(C)C)C(=O)N(C)CC(=O)N[C@H](Cc3ccccc3)COc3nc(C)sc3C(=O)N2)c1 [Example 241, (6R,12S,16S)-6-benzyl-12-isobutyl-N-(3-methoxyphenethyl)-2,10,13-trimethyl-8,11,14,18-tetraoxo-5,6,7,8,9,10,11,12,13,14,15,16,17,18-tetradecahydrothiazolo[5,4-p][1]oxa[4,7,10,14]tetraazacycloheptadecine-16-carboxamide] | 5.78 | 92
[2H]C([2H])([2H])Oc1cccc2c1C(=O)N[C@H](C(=O)NCCc1ccc3c(c1)OCO3)CC(=O)N(C)[C@@H](CC(C)C)C(=O)N(CCC1CCCCC1)CC(=O)N[C@H](Cc1ccccc1)CO2 [Example 242, (3R,9S,13S)-N-(2-(benzo[d][1,3]dioxol-5-yl)ethyl)-3-benzyl-7-(2-cyclohexylethyl)-9-isobutyl-16-(methoxy-d3)-10-methyl-5,8,11,15-tetraoxo-2,3,4,5,6,7,8,9,10,11,12,13,14,15-tetradecahydrobenzo[p][1]oxa[4,7,10,14]tetraazacycloheptadecine-13-carboxamide] | 6.75 | 232
[2H]C([2H])([2H])Oc1cccc2c1C(=O)N[C@H](C(=O)NCCc1cccc(OC)c1)CC(=O)N(C)[C@@H](CC(C)C)C(=O)N(CCC1CCCCC1)CC(=O)N[C@H](Cc1ccccc1)CO2 [Example 243, (3R,9S,13S)-3-benzyl-7-(2-cyclohexylethyl)-9-isobutyl-16-(methoxy-d3)-N-(3-methoxyphenethyl)-10-methyl-5,8,11,15-tetraoxo-2,3,4,5,6,7,8,9,10,11,12,13,14,15-tetradecahydrobenzo[p][1]oxa[4,7,10,14]tetraazacycloheptadecine-13-carboxamide] | 6.74 | 232
[2H]C([2H])([2H])Oc1cccc(CCNC(=O)[C@@H]2CC(=O)N(C)[C@@H](CC(C)C)C(=O)N(CCC3CCCCC3)CC(=O)N[C@H](Cc3ccccc3)COc3cccc(OC([2H])([2H])[2H])c3C(=O)N2)c1 [Example 244, (3R,9S,13S)-3-benzyl-7-(2-cyclohexylethyl)-9-isobutyl-16-(methoxy-d3)-N-(3-(methoxy-d3)phenethyl)-10-methyl-5,8,11,15-tetraoxo-2,3,4,5,6,7,8,9,10,11,12,13,14,15-tetradecahydrobenzo[p][1]oxa[4,7,10,14]tetraazacycloheptadecine-13-carboxamide] | 6.75 | 239
